According to patent publication US11866407B2 (priority 2021, dated 2024):
Like-named read-outs stand apart in the source and are kept apart here. Residues, ends and D or L forms follow the SMILES beside them. *: point of attachment. Cbz = O=C(OCc1ccccc1)*; CH2F = FC*

How the values were obtained:
SARS-CoV-2 M^pro = SARS-CoV-2 M^pro (Severe acute respiratory syndrome coronavirus 2, UniProt P0DTD1); assay: FRET-based enzymatic assay, SARS-CoV-2 Mpro; format: biochemical
[1] = Cytotoxicity in Calu-3 cells; format: cell-based; settings: human
[2] = Cytotoxicity in Vero E6 cells; settings: African green monkey
PL^pro = PL^pro (Severe acute respiratory syndrome coronavirus 2, UniProt P0DTD1); assay: PLpro protease inhibition (Table 2); format: biochemical, SARS-CoV-2
in vitro [3] = settings: African green monkey
SARS-CoV-2 [4] = assay: Antiviral activity in Calu-3 cells (Table 2); format: cell-based; settings: Severe acute respiratory syndrome coronavirus 2, Calu-3
in vitro [5] = settings: human, Caco-2
in vitro [6] = settings: human
cathepsin L = target: T1, cathepsin L (Homo sapiens, UniProt P07711); assay: Cathepsin L enzymatic assay; format: biochemical
T1 construct: purchased EMD Millipore 219402
T1 sequence (P07711 114-333): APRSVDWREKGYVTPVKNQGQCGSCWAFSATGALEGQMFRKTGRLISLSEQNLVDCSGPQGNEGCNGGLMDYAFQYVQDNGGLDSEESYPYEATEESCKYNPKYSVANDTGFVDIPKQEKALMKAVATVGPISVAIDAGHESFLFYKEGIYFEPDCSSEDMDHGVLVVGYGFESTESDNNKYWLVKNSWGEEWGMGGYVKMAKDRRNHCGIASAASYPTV
Protocol: (§1) Calpain I, Cathepsin L and Cathepsin K enzymatic assays were carried as previously described.^33

calpain I = target: T2, calpain I (Homo sapiens, UniProt P07384); assay: Calpain I enzymatic assay; format: biochemical
T2 construct: purchased Sigma-Aldrich C6108
T2 sequence (P07384 1-714): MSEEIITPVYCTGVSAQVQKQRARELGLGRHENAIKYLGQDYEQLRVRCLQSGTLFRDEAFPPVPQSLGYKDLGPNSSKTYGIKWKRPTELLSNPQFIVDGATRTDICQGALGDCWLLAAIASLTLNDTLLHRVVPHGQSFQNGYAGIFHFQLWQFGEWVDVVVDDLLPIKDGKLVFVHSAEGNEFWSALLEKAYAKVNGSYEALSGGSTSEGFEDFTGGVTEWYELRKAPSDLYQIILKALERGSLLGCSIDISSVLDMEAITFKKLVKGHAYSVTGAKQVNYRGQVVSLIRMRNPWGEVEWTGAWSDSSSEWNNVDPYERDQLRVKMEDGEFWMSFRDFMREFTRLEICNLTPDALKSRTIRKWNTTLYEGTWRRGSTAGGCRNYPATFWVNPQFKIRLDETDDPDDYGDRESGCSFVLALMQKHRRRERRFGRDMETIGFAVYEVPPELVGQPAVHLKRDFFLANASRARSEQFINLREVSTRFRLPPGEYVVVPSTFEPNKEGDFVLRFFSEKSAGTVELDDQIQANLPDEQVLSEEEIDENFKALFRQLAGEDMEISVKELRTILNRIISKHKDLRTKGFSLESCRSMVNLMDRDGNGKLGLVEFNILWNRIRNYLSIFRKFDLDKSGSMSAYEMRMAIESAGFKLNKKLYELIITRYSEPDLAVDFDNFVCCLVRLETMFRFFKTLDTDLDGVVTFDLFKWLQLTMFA
T2 sequence (P04632 1-268 partner): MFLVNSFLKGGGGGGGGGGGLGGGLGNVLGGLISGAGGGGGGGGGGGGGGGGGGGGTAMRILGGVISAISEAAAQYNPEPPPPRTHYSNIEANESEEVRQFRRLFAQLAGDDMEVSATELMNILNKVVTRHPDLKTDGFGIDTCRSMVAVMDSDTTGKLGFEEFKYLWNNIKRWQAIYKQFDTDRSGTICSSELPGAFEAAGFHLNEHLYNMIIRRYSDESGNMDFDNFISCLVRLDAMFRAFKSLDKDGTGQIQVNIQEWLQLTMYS
Protocol: as §1

[7] = tested on: M^pros from all seven human coronaviruses; assay: Thermal shift binding assay (DSF); settings: indicating protein stabilization
HCoV-NL63 = HCoV-NL63 CPE assay; format: cell-based; settings: with vs without CP-100356
SARS-CoV-2 [8] = assay: SARS-CoV-2 antiviral immunofluorescence assay; format: cell-based; settings: both cell lines (Vero E6 and Caco2-ACE2)
HCoV-229E = HCoV-229E CPE assay; format: cell-based; settings: Human coronavirus 229E
HCoV-OC43 = HCoV-OC43 plaque assay; format: cell-based; settings: Betacoronavirus 1, OC43, RD cells
caspase-3 = target: T3, caspase-3 (Homo sapiens, UniProt P42574); assay: Caspase-3 enzymatic assay; format: biochemical
T3 construct: purchased BioVision 1083-25
T3 sequence (P42574 29-175 limits assumed): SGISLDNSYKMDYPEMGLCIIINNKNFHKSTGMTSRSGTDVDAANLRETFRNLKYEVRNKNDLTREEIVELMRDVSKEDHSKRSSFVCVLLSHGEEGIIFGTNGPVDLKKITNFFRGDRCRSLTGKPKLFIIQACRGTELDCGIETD
T3 sequence (P42574 176-277 limits assumed): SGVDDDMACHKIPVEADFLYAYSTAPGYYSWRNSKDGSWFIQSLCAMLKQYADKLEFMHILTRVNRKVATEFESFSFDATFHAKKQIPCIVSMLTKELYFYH
Protocol: Caspase-3 enzymatic assay was carried out as follows: 1 unit Caspase-3 protein was diluted into 1600 μl reaction buffer (20 mM HEPES pH7.4, 2 mM EDTA, 0.1% CHAPS and 5 mM DTT); 100 μl diluted protein was incubated with 1 μl various concentration of testing compounds for 30 min at 30° C.; the enzymatic reaction was initiated by adding 1 μl of 2 mM Ac-DEVD-AFC (Medchemexpress, Catalog #HY-P1005). The reaction was monitored a Molecular Devices SpectraMax iD3 plate reader with excitation at 400 nm and emission at 505 nm at 30° C. for 1 hour. The IC50 values were calculated as described in the previous section.

## CC(C)C[C@H](NC(=O)OCc1ccc(NC(=O)CCC(=O)NCCOCCOCCNc2cccc3c2C(=O)N(C2CCC(=O)N(C)C2=O)C3=O)cc1)C(=O)N[C@@H](C[C@@H]1CCNC1=O)C(=O)C(=O)NC1CC1 (stereo partly shown)
SARS-CoV-2 M^pro
  IC50: 110 nM

## CC(C)C[C@H](NC(=O)OCc1ccc(NC(=O)CCC(=O)NCCOCCOCCNc2cccc3c2C(=O)N(C2CCC(=O)NC2=O)C3=O)cc1)C(=O)N[C@@H](C[C@@H]1CCNC1=O)C(=O)C(=O)NC1CC1 (stereo partly shown)
[1]
  CC50: > 250000 nM
SARS-CoV-2 M^pro
  IC50: 110 nM
[2]
  CC50: > 250000 nM
PL^pro
  IC50: > 20000 nM

## C#CCCC(=O)Nc1ccc(COC(=O)N[C@@H](CC(C)C)C(=O)N[C@@H](C[C@@H]2CCNC2=O)C(=O)C(=O)NC2CC2)cc1
[1]
  CC50: > 250000 nM
SARS-CoV-2 M^pro
  IC50: 150 nM
[2]
  CC50: > 250000 nM
PL^pro
  IC50: > 20000 nM

## O=C(NC1CC1)C(=O)[C@H](C[C@@H]1CCNC1=O)NC(=O)C1[C@H]2CCC[C@H]2CN1C(=O)OCc1ccccc1 (stereo partly shown)
SARS-CoV-2 M^pro
  IC50: 130 nM
In vitro [3]
  CC50: > 250000 nM

## CC1(C)[C@@H]2C(C(=O)N[C@@H](C[C@@H]3CCNC3=O)C(=O)C(=O)NC3CC3)N(C(=O)OCc3ccccc3)C[C@@H]21 (stereo partly shown)
SARS-CoV-2 M^pro
  IC50: 200 nM
In vitro [3]
  CC50: > 250000 nM

## CC(C)C[C@H](NC(=O)OCC1CCC(F)(F)CC1)C(=O)N[C@@H](C[C@@H]1CCNC1=O)C(=O)C(=O)NC1CC1
SARS-CoV-2 M^pro
  IC50: 60 nM
SARS-CoV-2 [4]
  EC50: 2600 nM
In vitro [3]
  CC50: > 250000 nM

## O=C(N[C@H](C(=O)N[C@@H](C[C@@H]1CCNC1=O)C(=O)C(=O)NC1CC1)C1CCCCC1)OCc1ccccc1
SARS-CoV-2 M^pro
  IC50: 380 nM
PL^pro
  IC50: > 20000 nM

## CC(C)C[C@H](NC(=O)[C@H](Cc1ccccc1)NC(=O)OCc1ccccc1)C(=O)N[C@@H](C[C@@H]1CCNC1=O)C(=O)C(=O)NC(C)C
SARS-CoV-2 M^pro
  IC50: 130 nM
PL^pro
  IC50: > 20000 nM

## CC(C)C[C@H](NC(=O)[C@H](Cc1ccccc1)NC(=O)OCc1ccccc1)C(=O)N[C@@H](C[C@@H]1CCNC1=O)C(=O)C(=O)NCc1ccccc1
SARS-CoV-2 M^pro
  IC50: 90 nM
PL^pro
  IC50: > 20000 nM

## CC(C)[C@H](NC(=O)OCc1ccccc1)C(=O)N[C@@H](C[C@@H]1CCNC1=O)C(=O)C(=O)NC1CC1
SARS-CoV-2 M^pro
  IC50: 1290 nM

## O=C(N[C@@H](Cc1ccc(F)cc1)C(=O)N[C@@H](C[C@@H]1CCNC1=O)C(=O)C(=O)NC1CC1)OCc1ccccc1
SARS-CoV-2 M^pro
  IC50: 5500 nM

## O=C(N[C@@H](Cc1ccccc1)C(=O)N[C@@H](C[C@@H]1CCNC1=O)C(=O)C(=O)NC1CC1)OCc1ccccc1
In vitro [5]
  CC50: > 100000 nM
SARS-CoV-2 M^pro
  IC50: 780 nM
In vitro [6]
  CC50: > 100000 nM

## CC(C)C[C@H](NC(=O)OCc1ccccc1)C(=O)N[C@@H](C[C@@H]1CCNC1=O)C(=O)C(=O)NC1CC1
In vitro [5]
  CC50: > 100000 nM
SARS-CoV-2 M^pro; read-out: SARS-CoV-2 M^pro IC50, Table 2
  IC50: 45 nM
In vitro [6]
  CC50: > 100000 nM

## CCOC(=O)/C=C/[C@H](C[C@@H]1CCNC1=O)NC(=O)[C@H](CC(C)C)NC(=O)OCc1ccccc1
SARS-CoV-2 M^pro
  IC50: 1710 nM

## CC(C)C[C@H](NC(=O)OCc1ccccc1)C(=O)N[C@@H](CC(C)C)C(=O)N[C@@H](C[C@@H]1CCNC1=O)C(=O)C(=O)NC1CC1
SARS-CoV-2 M^pro
  IC50: 12 nM

## CC(C)C[C@H](NC(=O)[C@@H](NC(=O)OCc1ccccc1)C(C)C)C(=O)N[C@@H](C[C@@H]1CCNC1=O)C(=O)C(=O)NC1CC1
SARS-CoV-2 M^pro
  IC50: 14 nM

## CC(C)C[C@H](NC(=O)[C@H](Cc1ccccc1)NC(=O)OCc1ccccc1)C(=O)N[C@@H](C[C@@H]1CCNC1=O)C(=O)C(=O)NC1CC1
SARS-CoV-2 M^pro
  IC50: 13 nM

## O=C(N[C@@H](Cc1ccccc1)C(=O)N[C@@H](C[C@@H]1CCNC1=O)C(O)S(=O)(=O)[O][Na+])OCc1ccccc1 (stereo partly shown)
SARS-CoV-2 M^pro
  IC50: 40 nM

## CC(C)C[C@H](NC(=O)OCc1ccccc1)C(=O)N[C@@H](CC1CCNC1=O)C(O)S(=O)(=O)O (stereo partly shown) [GC-376]
Cathepsin L
  IC50: 4.4 nM
Calpain I
  IC50: 74 nM

## O=CC(CC1CCNC1=O)NC(=O)C1C2CCCC2CN1C(=O)OCc1ccccc1 (stereo not shown) [UAWJ9-36-1]
[7]
  melting temperature shift (ΔTm): significantly increased
HCoV-NL63
  antiviral activity against HCoV-NL63 in Vero E6 cells in the presence of P-gp inhibitor CP-100356: increased
SARS-CoV-2 [8]
  antiviral potency against SARS-CoV-2 relative to GC-376: less potent than GC-376
HCoV-229E
  EC50: 170 nM
HCoV-OC43
  EC50: 46 nM

## CC1(C)C2CN(C(=O)OCc3ccccc3)C(C(=O)NC(C=O)CC3CCNC3=O)C21 (stereo not shown) [UAWJ9-36-3]
HCoV-NL63
  antiviral activity against HCoV-NL63 in Vero E6 cells in the presence of P-gp inhibitor CP-100356: increased
HCoV-229E
  EC50: 130 nM
HCoV-OC43
  EC50: 59 nM

## COC(=O)C[C@H](NC(=O)[C@H](C)NC(=O)[C@@H](NC(=O)OCc1ccccc1)C(C)C)C(=O)CF [Z-VAD-FMK] (Cbz-Val-Ala-Asp(OMe)-CH2F)
caspase-3
  IC50: 100 ± 40 nM
